In US8338565B2, “Macrocyclic compounds for inhibition of tumor necrosis factor alpha” (Ensemble Therapeutics Corporation, priority 2008, dated 2012):
Numbered stars: 1 amine (or outer) side, 2 acyl side, 3 side chain; on linkers, the order of the positions; unused ones are H or OH. Bridge positions count the residues as written; N and C are the ends. Square brackets hold non-standard residues; d marks the D form. Peptide text beside a SMILES is read from it. * marks the point of attachment. Tartaroyl(2R,3R-(OAc)2) = CC(=O)O[C@@H](C(=O)[*:1])[C@@H](OC(C)=O)C(=O)[*:2]; Phe(4-CF3) = N[C@@H](Cc1ccc(C(F)(F)F)cc1)C(=O)O; Phe(4-COOH) = N[C@@H](Cc1ccc(C(=O)O)cc1)C(=O)O; Bip = N[C@@H](Cc1ccc(-c2ccccc2)cc1)C(=O)O; dBip = N[C@H](Cc1ccc(-c2ccccc2)cc1)C(=O)O; dPhe(4-NH2) = Nc1ccc(C[C@@H](N)C(=O)O)cc1; Phe(4-Br) = N[C@@H](Cc1ccc(Br)cc1)C(=O)O; Phe(4-NH2) = Nc1ccc(C[C@H](N)C(=O)O)cc1; dAla(2-furyl) = N[C@H](Cc1ccco1)C(=O)O; d1Nal = N[C@H](Cc1cccc2ccccc12)C(=O)O; d(hPhe) = N[C@H](CCc1ccccc1)C(=O)O; hPhe = N[C@@H](CCc1ccccc1)C(=O)O; 2Thi = N[C@@H](Cc1cccs1)C(=O)O; Cha = N[C@@H](CC1CCCCC1)C(=O)O; d2Thi = N[C@H](Cc1cccs1)C(=O)O; Suc = O=C(CCC(=O)[*:2])[*:1]; NMeA = CN[C@@H](C)C(=O)O; Nphe = O=C(O)CNCc1ccccc1; Dap = NC[C@H](N)C(=O)O; Bn = c1ccc(C*)cc1; GABA = NCCCC(=O)O; βAla = NCCC(=O)O

Molecular target: T1, TNFα / TNFα receptor (TNFα R1/Fc) (Homo sapiens, UniProt P01375)
T1 construct: purchased R&D Systems
Assay: Inhibition of binding of TNFα to the TNFα receptor (plate ELISA competition)
Details: Activity (IC50, inhibition of TNFα binding to TNFα R1/Fc), Table 2
Outline: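 Compound dilutions were preincubated 30 min at RT with 8.33 nM TNFα R1/Fc in PBST with 2% DMSO, then added to wells coated with 15 nM TNFα for 30 min. Bound receptor was detected with HRP anti-human Fc and TMB, read as A450.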

T1 sequence (P01375 77-233 limits assumed, species assumed): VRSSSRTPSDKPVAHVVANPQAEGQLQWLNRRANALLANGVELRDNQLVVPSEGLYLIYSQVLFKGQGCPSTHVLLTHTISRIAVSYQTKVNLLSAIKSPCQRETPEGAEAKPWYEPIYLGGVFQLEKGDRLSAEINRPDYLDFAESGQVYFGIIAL

Row | SMILES | IC50
1 | O=C1COc2ccc(cc2)C[C@H](C(=O)N[C@H](Cc2ccccc2)C(=O)O)NC(=O)[C@@H](CCc2ccccc2)NC(=O)[C@H](Cc2ccc(-c3ccccc3)cc2)NC(=O)[C@@H](Cc2cccs2)N1 [Compound 562] | < 10 µM
2 | O=C1COc2ccc(cc2)C[C@@H](C(=O)N[C@H](CCc2ccccc2)C(=O)O)NC(=O)[C@H](Cc2c[nH]c3ccccc23)NC(=O)[C@@H](Cc2ccc(-c3ccccc3)cc2)NC(=O)[C@H](Cc2ccncc2)N1 [Compound 745] | 10 to 30 µM
3 | CN(C(=O)[C@@H]1Cc2ccc(cc2)OCC(=O)N[C@@H](Cc2cccs2)C(=O)N[C@H](Cc2ccc(-c3ccccc3)cc2)C(=O)N[C@@H](CCc2ccccc2)C(=O)N1)[C@@H](Cc1ccccc1)C(=O)O [Compound 621] | < 10 µM

Same assay, conditions: Table 2; read-out: Activity (IC50, inhibition of TNFα binding to TNFα R1/Fc)

Row | SMILES | IC50
4 | O=C1CCNC(=O)c2ccc(cc2)C[C@@H](C(=O)N[C@H](Cc2ccccc2)C(=O)O)NC(=O)[C@@H](Cc2ccccc2)NC(=O)[C@H](Cc2ccc(-c3ccccc3)cc2)NC(=O)[C@@H](CCc2ccccc2)N1 [Compound 423] ([βAla][d(hPhe)][Bip][dF][Phe(4-COOH)][dF]-OH; lactam N-5) | < 10 µM
5 | O=C1COc2ccc(cc2)C[C@@H](C(=O)O)NC(=O)[C@H](Cc2ccccc2)NC(=O)[C@@H](Cc2ccc(C(F)(F)F)cc2)NC(=O)[C@H](Cc2cccs2)N1 [Compound 397] | > 100 µM
6 | O=C1CCC(=O)N[C@H](Cc2cccc3ccccc23)C(=O)N[C@@H](Cc2ccc(C(F)(F)F)cc2)C(=O)N[C@H](Cc2ccccc2)C(=O)N[C@H](C(=O)O)Cc2ccc(cc2)N1 [Compound 142] ([d1Nal][Phe(4-CF3)][dF][Phe(4-NH2)]-OH; linker N-4 via Suc) | 30 to 100 µM
7 | C[C@@H](C(=O)O)N(C)C(=O)[C@@H]1Cc2ccc(cc2)NC(=O)CCC(=O)N[C@H](Cc2cccs2)C(=O)N[C@@H](Cc2ccc(-c3ccccc3)cc2)C(=O)N[C@H](Cc2ccccc2)C(=O)N1 [Compound 30] ([d2Thi][Bip][dF][Phe(4-NH2)][NMeA]-OH; linker N-4 via Suc) | 10 to 30 µM
8 | O=C1CCC(=O)N[C@H](Cc2cccs2)C(=O)N[C@@H](CC2CCCCC2)C(=O)N[C@H](Cc2ccccc2)C(=O)N[C@H](C(=O)O)Cc2ccc(cc2)N1 [Compound 84] ([d2Thi][Cha][dF][Phe(4-NH2)]-OH; linker N-4 via Suc) | > 100 µM
9 | O=C1COc2ccc(cc2)C[C@@H](C(=O)O)NC(=O)[C@H](Cc2cccc(C(F)(F)F)c2)NC(=O)[C@@H](Cc2ccc(-c3ccccc3)cc2)NC(=O)[C@H](Cc2ccncc2)N1 [Compound 648] | < 10 µM
10 | O=C1CCC(=O)N[C@H](Cc2cccs2)C(=O)N[C@@H](Cc2ccc(-c3ccccc3)cc2)C(=O)N[C@H](CCc2ccccc2)C(=O)Nc2ccc(cc2)C[C@@H](C(=O)O)N1 [Compound 551] | 30 to 100 µM
11 | O=C(O)[C@@H]1Cc2ccc(cc2)NC(=O)[C@H](O)[C@@H](O)C(=O)N[C@H](Cc2cccs2)C(=O)N[C@@H](Cc2ccc(-c3ccc(F)cc3)cc2)C(=O)N[C@H](Cc2ccccc2)C(=O)N1 [Compound 334] | 30 to 100 µM
12 | N[C@H]1CNC(=O)c2ccc(cc2)C[C@@H](C(=O)O)NC(=O)[C@@H](Cc2ccccc2)NC(=O)[C@H](Cc2ccc(-c3ccccc3)cc2)NC(=O)[C@@H](CCc2ccccc2)NC1=O [Compound 265] (H-[Dap][d(hPhe)][Bip][dF][Phe(4-COOH)]-OH; lactam 1-5) | > 100 µM
13 | O=C1CCC(=O)N[C@H](CCc2ccccc2)C(=O)N[C@@H](Cc2ccc(-c3ccccc3Cl)cc2)C(=O)N[C@H](Cc2ccccc2)C(=O)N[C@H](C(=O)O)Cc2ccc(cc2)N1 [Compound 170] | 30 to 100 µM
14 | O=C(O)CCNC(=O)[C@@H]1Cc2ccc(cc2)NC(=O)[C@H](O)[C@@H](O)C(=O)N[C@H](Cc2cccs2)C(=O)N[C@@H](Cc2ccc(-c3ccccc3)cc2)C(=O)N[C@H](Cc2ccccc2)C(=O)N1 [Compound 175] | < 10 µM
15 | O=C1COc2ccc(cc2)C[C@@H](C(=O)O)NC(=O)[C@H](CCc2ccccc2)NC(=O)[C@@H](Cc2ccc(-c3ccccc3)cc2)NC(=O)[C@H](Cc2ccc(Cl)cc2)N1 [Compound 707] | < 10 µM
16 | O=C(O)[C@@H]1Cc2ccc(cc2)NC(=O)[C@H](O)[C@@H](O)C(=O)N[C@H](CCc2ccccc2)C(=O)N[C@@H](Cc2ccc(-c3ccccc3)cc2)C(=O)N[C@H](Cc2ccccc2)C(=O)N1 [Compound 246] | 30 to 100 µM
17 | O=C1COc2ccc(cc2)C[C@@H](C(=O)O)NC(=O)[C@H](Cc2ccc(-c3cccnc3)cc2)NC(=O)[C@@H](Cc2ccc(-c3ccccc3)cc2)NC(=O)[C@H](Cc2ccncc2)N1 [Compound 644] | < 10 µM
18 | CC(=O)N[C@H]1CNC(=O)c2ccc(cc2)C[C@@H](C(=O)O)NC(=O)[C@@H](Cc2ccccc2)NC(=O)[C@H](Cc2ccc(-c3ccccc3)cc2)NC(=O)[C@@H](CCc2ccccc2)NC1=O [Compound 266] (Ac-[Dap][d(hPhe)][Bip][dF][Phe(4-COOH)]-OH; lactam 1-5) | > 100 µM
19 | N=C(N)NCCC[C@@H]1NC(=O)[C@H](Cc2ccc(-c3ccccc3)cc2)NC(=O)[C@@H](Cc2cccs2)NC(=O)CCC(=O)Nc2ccc(cc2)C[C@@H](C(=O)O)NC1=O [Compound 72] ([d2Thi][Bip]R[Phe(4-NH2)]-OH; linker N-4 via Suc) | > 100 µM
20 | O=C1COc2ccc(cc2)C[C@@H](C(=O)NCC2(C(=O)O)CC2)NC(=O)[C@@H](CCc2ccccc2)NC(=O)[C@H](Cc2ccc(-c3ccccc3)cc2)NC(=O)[C@@H](Cc2cccs2)N1 [Compound 404] | < 10 µM
21 | CC(C)(C)OC(=O)C[C@H](NC(=O)[C@@H]1Cc2ccc(cc2)OCC(=O)N[C@@H](Cc2cccs2)C(=O)N[C@H](Cc2ccc(-c3ccccc3)cc2)C(=O)N[C@@H](Cc2ccccc2)C(=O)N1)C(=O)O [Compound 389] | > 100 µM

Other lines, results leading:

Row | IC50 | SMILES
22 | < 10 µM | O=C1COc2ccc(cc2)C[C@@H](C(=O)O)NC(=O)[C@H](CCc2ccccc2)NC(=O)[C@@H](Cc2ccc(-c3ccccc3)cc2)NC(=O)[C@H](Cc2ccc(-c3ccc(Cl)cc3)cc2)N1 [Compound 702]
23 | > 100 µM | Cc1ccc(S(=O)(=O)NCCNC(=O)[C@@H]2Cc3ccc(cc3)OCC(=O)N[C@@H](Cc3cccs3)C(=O)N[C@H](Cc3ccc(-c4ccccc4)cc3)C(=O)N[C@@H](CCc3ccccc3)C(=O)N2)cc1 [Compound 484]
24 | > 100 µM | O=C1CCNC(=O)c2ccc(cc2)C[C@@H](C(=O)O)NC(=O)[C@@H](Cc2ccccc2)NC(=O)[C@H](Cc2ccc(-c3ccccc3)cc2)NC(=O)[C@H](CCc2ccccc2)N1 [Compound 467] ([βAla][hPhe][Bip][dF][Phe(4-COOH)]-OH; lactam N-5)
25 | 10 to 30 µM | O=C1COc2ccc(cc2)C[C@@H](C(=O)O)NC(=O)[C@H](CCc2ccccc2)NC(=O)[C@@H](Cc2ccc(-c3ccccc3)cc2)NC(=O)[C@H](Cc2cccc(C(F)(F)F)c2)N1 [Compound 690]
26 | < 10 µM | O=C(O)CCCNC(=O)[C@@H]1Cc2ccc(cc2)C(=O)NCCC(=O)N[C@H](CCc2ccccc2)C(=O)N[C@@H](Cc2ccc(-c3ccccc3)cc2)C(=O)N[C@H](Cc2ccccc2)C(=O)N1 [Compound 421] ([βAla][d(hPhe)][Bip][dF][Phe(4-COOH)][GABA]-OH; lactam N-5)
27 | > 100 µM | O=C1COc2ccc(cc2)C[C@@H](C(=O)O)NC(=O)[C@@H](CCc2ccccc2)NC(=O)[C@H](Cc2ccc(-c3ccccc3)cc2)NC(=O)[C@@H](Cc2ccncc2)N1 [Compound 523]
28 | 10 to 30 µM | NCCCC[C@H](NC(=O)[C@@H]1Cc2ccc(cc2)NC(=O)CCC(=O)N[C@H](CCc2ccccc2)C(=O)N[C@@H](Cc2ccc(-c3ccccc3)cc2)C(=O)N[C@H](Cc2ccccc2)C(=O)N1)C(=O)O [Compound 295] ([d(hPhe)][Bip][dF][Phe(4-NH2)]K-OH; linker N-4 via Suc)
29 | > 100 µM | O=C1CCC(=O)N[C@H](Cc2ccccc2)C(=O)N[C@@H](Cc2ccc(Br)cc2)C(=O)N[C@H](Cc2ccco2)C(=O)N[C@@H](C(=O)O)Cc2ccc(cc2)N1 [Compound 153] ([dF][Phe(4-Br)][dAla(2-furyl)][dPhe(4-NH2)]-OH; linker N-4 via Suc)
30 | 10 to 30 µM | O=C1CCC(=O)N[C@H](CCc2ccccc2)C(=O)N[C@@H](Cc2ccc(OCc3ccccc3)cc2)C(=O)N[C@H](Cc2ccccc2)C(=O)N[C@@H](C(=O)O)Cc2ccc(cc2)N1 [Compound 173] ([d(hPhe)]Y(Bn)[dF][dPhe(4-NH2)]-OH; linker N-4 via Suc)
31 | 10 to 30 µM | O=C1COc2ccc(cc2)C[C@@H](C(=O)O)NC(=O)[C@@H](CCc2ccccc2)NC(=O)[C@H](Cc2ccc(-c3ccccc3)cc2)NC(=O)C(c2ccc(Br)cc2)N1 (stereo partly drawn) [Compound 517]
32 | > 100 µM | CC(=O)O[C@H]1C(=O)Nc2ccc(cc2)C[C@@H](C(=O)N[C@@H](Cc2ccccc2)C(=O)O)NC(=O)[C@H](Cc2ccccc2)NC(=O)[C@@H](Cc2ccc(-c3ccccc3)cc2)NC(=O)[C@H](Cc2cccs2)NC(=O)[C@@H]1OC(C)=O [Compound 414] ([2Thi][dBip]F[Phe(4-NH2)]F-OH; linker N-4 via Tartaroyl(2R,3R-(OAc)2))
33 | < 10 µM | O=C(O)CN(Cc1ccccc1)C(=O)[C@@H]1Cc2ccc(cc2)NC(=O)CCC(=O)N[C@H](CCc2ccccc2)C(=O)N[C@@H](Cc2ccc(-c3ccccc3)cc2)C(=O)N[C@H](Cc2ccccc2)C(=O)N1 [Compound 504] ([d(hPhe)][Bip][dF][Phe(4-NH2)][Nphe]-OH; linker N-4 via Suc)
34 | < 10 µM | O=C1CCC(=O)N[C@H](CCc2ccccc2)C(=O)N[C@@H](Cc2ccc(-c3ccccc3)cc2)C(=O)N[C@H](Cc2ccccc2)C(=O)N[C@@H](C(=O)O)Cc2ccc(cc2)N1 [Compound 172] ([d(hPhe)][Bip][dF][dPhe(4-NH2)]-OH; linker N-4 via Suc)
35 | < 10 µM | O=C1COc2ccc(cc2)C[C@@H](C(=O)N[C@H](CCc2ccccc2)C(=O)O)NC(=O)[C@H](CCc2ccccc2)NC(=O)[C@@H](Cc2ccc(-c3ccccc3)cc2)NC(=O)[C@H](Cc2ccncc2)N1 [Compound 619]
36 | > 100 µM | O=C(O)[C@@H]1Cc2ccc(cc2)NC(=O)[C@@H](O)[C@H](O)C(=O)N[C@H](Cc2cccs2)C(=O)N[C@@H](Cc2ccc(-c3ccccc3)cc2)C(=O)N[C@H](Cc2ccccc2)C(=O)N1 [Compound 185]
